From US20260373274A1, “PEPTIDE-LINKED DRUG DELIVERY SYSTEM” (priority 2022, published 2026)
“Also recorded” adds a separate entry of the source. Where a SMILES comes first, the peptide text is derived from it. [ ]: non-standard residue; d: D form. The star is where a group is joined. X1 = COc1cc2cc(c1Cl)N(C)C(=O)C[C@H](OC(=O)[C@H](C)N(C)C(=O)CCS*)[C@]1(C)O[C@H]1[C@H](C)[C@@H]1C[C@@](O)(NC(=O)O1)[C@H](OC)/C=C/C=C(\C)C2; βAla = NCCC(=O)O; Mpa = O=C(O)CCS

What was measured:
kidneys = assay: Nephrotoxicity studies, kidney histology and immunohistochemistry (NGAL and KIM-1); format: in vivo, BALB/c mice; settings: 3 days after i.v. administration; CIS 10 mg/kg, DM1-Bdd 0.75 mg/kg of drug content
Method: (§1) Slides were then counterstained with Hematoxylin.
(§2) The level of the acute renal injury biomarkers, neutrophil gelatinase-associated lipocalin (NGAL) and kidney injury molecule-1 (KIM-1) in the urine samples, were measured using ELISA assays according to the manufacturer's instructions (R&D Systems, Minneapolis, MN). […] All the animals (n=3/group) were euthanized at the end of the treatment and the kidneys were collected and fixed in 10% neutral buffered formalin. The tissues were then processed, embedded in paraffin, sectioned, and stained with H&E. Immunohistochemistry (IHC) for kidney injury (NGAL and KIM-I) was also performed.

[1] = tested on: orthotopic human UMUC-3 tumors; assay: Therapeutic efficacy for treating BC, orthotopic UMUC-3/GFP-Luc xenograft
Source text: These animals were immediately euthanized I week after the completion of the treatment schedule.
as §1

Serum biochemistry = format: in vivo, female BALB/c mice; settings: i.v. weekly for 3 weeks; DM1/DM1-Bdd 0.75 mg/kg, CIS 10 mg/kg
Source text: (§3) At the end of a 3-week treatment, mice were euthanized. The organs/tissues were harvested, fixed in 10% neutral buffered formalin for 2 days. Bones were decalcified in a formic acid solution (Surgipath Decalcifier I; Leica Biosystems, Weltzar, Germany). The samples were then embedded in paraffin, sectioned (5 μm), and stained with H&E for examination by an ACVP board certified anatomic pathologist.
(§4) Hematology and biochemistry—Blood samples were collected via cardiac puncture. A complete blood count, including red blood cell, white blood cell, reticulocyte and platelet counts, with an automated differential leukocyte count, was performed using an IDEXX Procyte DX hematology analyzer (iDEXX, Westbrook. ME). Blood smears were prepared, stained with modified Wright's stain, examined in a blinded fashion by a board-certified veterinary clinical pathologist (T.S.), and imaged using a Nikon Eclipse TE2000-U fluorescent microscope equipped with a photometrics CoolSNAP HQ^2 camera (Nikon Corporation, Tokyo, Japan). The blood was also centrifuged (1,500×G) for 15 min to obtain the serum for biochemical analysis using a Beckman Coulter AU680 analyzer (Beckman Coulter, Brea, CA).

[2] = tested on: kidney injury molecule-1 (KIM-1) and neutrophil gelatinase-associated lipocalin (NGAL); assay: Nephrotoxicity studies, urinary renal injury biomarkers by ELISA; format: in vivo, BALB/c mice; settings: single i.v. dose, 0.75 mg/kg of drug content
Method: as §2

[3] = Hematology, complete blood count; format: in vivo, female BALB/c mice; settings: i.v. weekly for 3 weeks; DM1/DM1-Bdd 0.75 mg/kg, CIS 10 mg/kg
Method: as §3, with “Necropsy—Seven- to 9-week-old female BALB/c mice (n=4/group) were treated weekly with PBS, DM1, DM1-peptide (0.75 mg/kg of drug content), or cisplatin (10 mg/kg) via tail-vein injection (150 μL). At” for “At”
as §4

[4] = In vitro drug release study, DM1-peptide; format: physicochemical; settings: GSH (1 mM), PBS
Method: In vitro drug release study—DM1-peptide conjugates (10 μM of drug content) were incubated in the presence of the reducing agent GSH (1 mM) in PBS buffer (800 μL). At different time intervals (0, 2, 4, 6, 8, 12, 24, and 48 h), a small amount of solution (100 μL) was taken out for HPLC analysis using C18 analytical column. The amount of DM1 active metabolites released overtime was measured (absorbance detected at 254 nm) and then quantified. The experiment was performed independently in triplicate. A similar experiment was performed to quantify the release of aldox. Aldox-peptide conjugates (100 μM of drug content) were incubated in PBS buffer (800 μL) with different pH (7.4 and 5.5) in a glass vial coated with silica to avoid non-specific adsorption on the reaction vessel surfaces. The amount of drug released over time was then measured as described above (absorbance detected at 480 nm). For accurate quantification, all the results were normalized compared to a DOX control incubated in similar conditions.

Renca/GFP-Luc tumors = assay: Kidney cancer treatment, orthotopic Renca/GFP-Luc syngeneic model; format: in vivo, female BALB/c mice; murine tumor cells
Method: Evaluation of DM1-Bdd for Kidney cancer treatment—Renca/GFP-Luc cells ([…]) in PBS (3 μL) were orthotopically implanted into the kidney capsules of 7- to 9-week-old female BALB/c mice (Jackson Laboratory, Bar Harbor, ME) as previously described. The tumor progression was confirmed by bioluminescence imaging. […] The animals were monitored for tumor growth inhibition and survival as described above. Additional mice were used for histopathological analysis (n=4/group).
as §1

[5] = tested on: major organs (liver, spleen, heart, lungs, and kidneys); assay: Necropsy, histopathology of major organs; format: in vivo, female BALB/c mice; settings: i.v. weekly for 3 weeks
Source text: as §3

[6] = μPET/CT imaging and biodistribution of ^89Zr-radiolabeled peptides; format: in vivo, BALB/c mice; settings: i.v.
Method: Radiochemistry—^89Zirconium (^89Zr) was supplied by 3DImaging LLC (Little Rock, AR). The ^89Zr-oxalate (500 μCi) was first neutralized with an equivalent volume of sodium carbonate solution (2 M), and then added to the DFO-peptides (0.2 mg, 250 μL). After incubation for 1.5 h at room temperature, the radiolabeled peptides (^89Zr-peptides) were purified by size exclusion chromatography using Sephadex G-25 gel to remove the free zirconium.
μPET/CT imaging and biodistribution study—BALB/c mice were intravenously injected with different ^89Zr-peptide analogues (20 μCi, 100 μL). μLPET/CT imaging was performed in animals with and without urine collection prior to the first imaging (n=4/analogue/condition). Whole-body images were acquired 1, 4, and 24 h after injection, using Inveon μPET/CT scanner (Siemens Medical Solutions, Malvern, PA). μPET/CT maximum energy projections were processed using Amide v1.0.4 and Inveon Research Workplace software. The radioactivities at different region of interest (ROI) were determined. […] The radioactivities of the harvested organs were measured using the Wallac Wizard 2 gamma counter. The results were corrected from radioactive decay, and were expressed as a percentage of the injected dose (% ID) or percentage of injected dose per gram of tissue (% ID/g).

[7] = i.v., 0.75 mg/kg weekly for 3 weeks
[8] = i.v., 0.75 mg/kg of drug content weekly for 3 weeks
[9] = one week after completing the treatment course

Which results are given for `COc1cc2cc(c1Cl)N(C)C(=O)C[C@H](OC(=O)[C@H](C)N(C)C(=O)CCSSCCC(=O)NCCC(=O)N[C@H](CC(=O)O)C(=O)N[C@H](CC(=O)O)C(=O)NCCC(=O)N[C@H](CC(=O)O)C(=O)N[C@H](CC(=O)O)C(=O)NCCC(=O)N[C@H](CC(=O)O)C(=O)N[C@H](CC(=O)O)C(=O)NCCC(=O)N[C@H](CC(=O)O)C(=O)N[C@H](CC(=O)O)C(N)=O)[C@]1(C)O[C@H]1[C@H](C)[C@@H]1C[C@@](O)(NC(=O)O1)[C@H](OC)/C=C/C=C(\C)C2` [DM1-Bdd] ([Mpa](X1)[βAla][dD][dD][βAla][dD][dD][βAla][dD][dD][βAla][dD][dD]-NH2)?
histologic examination of kidneys (kidneys): did not reveal any abnormalities in the kidneys; immunoreactivity of kidney sections for KIM-1 and NGAL (kidneys): no elevation of the immunoreactivity; treatment outcome of i.v. compared to i.t. administration ([1]; 0.75 mg/kg of drug content weekly for 3 weeks): better treatment outcome; also recorded: more effective; anti-tumor activity of i.v. DM1-Bdd versus i.v. DM1 ([1]; bioluminescence imaging during 3 once-per-week treatments): similar; survival after 100 days [1, 7]: 36%; tumor growth inhibition compared to i.t. MIT [1, 7]: more effective in inhibiting tumor growth; animal survival compared to i.t. MIT ([1]; i.v., 0.75 mg/kg weekly for 3 weeks, 0.75 mg/kg): prolonged animal survival; also recorded: improved the overall survival; animals for which treatment was curative ([1]; i.v., 210 days): 21%; gross and histologic evidence of tumors in survivor mice ([1]; i.v., 210 days): lacked gross and histologic evidence (using GFP and Ki67 immunostaining) of tumors; animals which lacked gross and histologic evidence of tumors ([1]; i.v., 210 days after tumor implantation): 3 animals; tumor size by histology ([1]; i.v., end of treatment): smaller; GFP-positive cells ([1]; i.v., immunohistochemistry): fewer GFP-positive cells; proportion of cells expressing Ki67 ([1]; i.v., immunohistochemistry): lower proportion of cells expressing the proliferation marker (Ki67); hepatotoxicity: release of ALP, ALT, and AST (Serum biochemistry): not hepatotoxic, with no significant alteration in the release of ALP, ALT, and AST; urea nitrogen/creatinine ratio (Serum biochemistry): normal; time for KIM-1 and NGAL to return to basal levels [2]: ≤ 3 days; levels of KIM-1 and NGAL in the urine, 1 day ([2]; 1 day): slightly increased; red blood cell, leukocyte, or platelet counts or morphologic features [3]: did not affect the red blood cell, leukocyte, or platelet counts or morphologic features; drug release in a reducing environment [4]: enabling drug release in a reducing environment; survival benefit compared to the free drug (Renca/GFP-Luc tumors; i.v.): significant survival benefit compared to the free drug; bioluminescence signals in the majority of the animals (Renca/GFP-Luc tumors; [8]): decreased bioluminescence signals; survival after 160 days (Renca/GFP-Luc tumors; [8]): 50%; tumor progression (Renca/GFP-Luc tumors; [8]): inhibit tumor progression; tumor size (Renca/GFP-Luc tumors; [8]): reduced tumor size; animals lacking gross or histologic evidence of the tumor (Renca/GFP-Luc tumors; [9]): approximately 50%; tumor in kidneys by histological examination (Renca/GFP-Luc tumors; [9]): Minimal tumor was present; overall toxicity [5]: did not induce unwanted toxicity; also recorded: safe toxicity profile; histopathology of liver, spleen, heart, lungs, or kidneys ([5]; DM1/DM1-Bdd 0.75 mg/kg, CIS 10 mg/kg): no morphological evidence of injury in the liver, spleen, heart, lungs, or kidneys

With `CC(=O)N(O)CCCCCNC(=O)CCC(=O)N(O)CCCCCNC(=O)CCC(=O)N(O)CCCCCNC(=S)Nc1ccc(NC(=S)NCCC(=O)N[C@@H](CCCCN)C(=O)N[C@@H](CCCCN)C(=O)NCCC(=O)N[C@@H](CCCCN)C(=O)N[C@@H](CCCCN)C(=O)NCCC(=O)N[C@@H](CCCCN)C(=O)N[C@@H](CCCCN)C(=O)NCCC(=O)N[C@@H](CCCCN)C(=O)N[C@@H](CCCCN)C(N)=O)cc1` [^89Zr-BKK, metal not drawn] (HELM PEPTIDE1{[CC(=O)N(O)CCCCCNC(=O)CCC(=O)N(O)CCCCCNC(=O)CCC(=O)N(O)CCCCCNC(=S)Nc1ccc(NC(=S)[*:2])cc1].[bAla].K.K.[bAla].K.K.[bAla].K.K.[bAla].K.K.[am]}$$$$V2.0) as the molecule, how does the organ distribution [6] read?
The organ distribution was “delivered to the liver in addition to the URS”.

Which “accumulation in kidneys over time” value [6] does the source give for “NH2-(PEG3)DD-(PEG3)DD-(PEG3)DD-(PEG3)DD-CONH2 (SEQ ID NO:5) [PEG3DD]” here?
Its value is “initial increase”.
